{"source": "patent US20050154046A1", "about": "“Methods of treating an inflammatory-related disease” (priority 2004, published 2005)", "key": {"cyclin D1": {"tested_on": "cyclin D1", "assay": "Cyclin D1 levels in THP-1 cells", "type": "cell-based, human", "settings": "31.25 and 62.5 nM, 24 h; data not shown"}, "IL-6": {"tested_on": "IL-6", "assay": "IL-6 secretion (ELISA) in LPS-stimulated THP-1 cells", "type": "cell-based, human", "procedure": "Viability of cells was examined under microscope after trypan blue staining.\nStandard IL-6 protein was used to establish a standard curve for the calculation of IL-6 in the medium secreted by the cells (LPS-stimulated or non-stimulated cells in the presence or absence of Meisoindigo).\n1) Effects of Meisoindigo and NATURA on the expression/secretion of cytokines IL-1β, IL-6, IL-10: The human monocytic THP-1 cells grown exponentially were stimulated with or without 1 μM of lipopolysaccharide (LPS, Sigma), and exposed for 24 hours to different concentrations of Meisoindigo and NATURA (from 31.25 nM and 62.5 nM), respectively. Viability of cells was examined by trypan blue exception assay."}, "mouse vaginal epithelium": {"tested_on": "mouse vaginal epithelium", "assay": "Mitotic index in estrogen-stimulated vaginal epithelium of female mice", "type": "in vivo, Kunming mice", "settings": "200.0 mg/kg orally once a day, 3 days; percent of mitotic cells", "text": "Materials: Meisoindigo was synthesized, purified and its structure characterized by Natrogen Therapeutics, Inc. The purity of the compound was 98.5% as described in the Examples above. A suspension of Meisoindigo was freshly prepared in 0.5% sodium methylcellulose and given orally for the animal tests described below. Other chemicals used in the following experiments were purchased from Sigma.\nPathogen-free female Kunming mice at 12 weeks of age with body weights from 22 to 25 grams were housed 5 per cage, and given, ad libitum, fresh tap water and commercial rodent pellets. Animal rooms were controlled at 24±2° C. with a relative humidity of 60±5% and a 12 hour light/dark cycle (07:00-19:00 hr).\nAnti-mitotic Effects of Meisoindigo on Mouse Vaginal Epithelium: Sixty Kunming female mice were randomly divided into 5 groups, 20 in one control group, and 10 in 4 drug-tested groups. All mice were given estrogen at a dose of 0.2 mg/animal for 3 days to allow vaginal epithelial cells to develop under the stimulation of estrogen hormone. Meisoindigo was freshly prepared as a suspension in 0.5% of sodium methylcellulose. The drug was given orally at doses of 50, 100, and 200 mg/kg, respectively, once a day for 3 days. Methotrexate (MTX) was used as a positive control at a dose of 1 mg/kg, i.p. once a day for the same period of time. […] The mitotic index (percent of mitotic cells) was calculated."}, "IL-15": {"tested_on": "IL-15", "assay": "IL-15 real time PCR in LPS-stimulated THP-1 cells", "type": "cell-based, human", "settings": "data not shown"}, "cdk4/6": {"tested_on": "cdk4/6", "assay": "Cyclin dependent kinase activity in THP-1 cells (immunoprecipitation, histone H1 phosphorylation)", "type": "cell-based, human", "settings": "31.25 and 62.5 nM, 24 h", "method": "2) Effects of Meisoindigo and/or NATURA on activity of cyclin dependent kinases (CDK) in THP-1 cells (99): THP-1 cells grown exponentially were exposed to […] of Meisoindigo or NATURA for 24 hr, respectively.\nThe cells were harvested, washed, and total proteins extracted as described previously (100). One hundred μg of the proteins were immuno-precipitated using antibodies against either cdk2, cdk4/6 or cyclin D1 overnight at 4° C. in the presence of a cocktail of protease inhibitors. The immuno-precipitates were washed 4 times with protein extraction buffer and once with kinase assay buffer, and reacted with […] histone H1 in the presence of [γ-^32P]-ATP (10 μCi/10 μM). The phosphorylated histone H1 (represent cdk activity) was measured by scintillation counting or by SDS-polyacrylaimde gel electrophoresis (101, 102)."}}}
{"smiles": "CN1C(=O)/C(=C2/C(=O)Nc3ccccc32)c2ccccc21", "note": "[Meisoindigo]", "values": [{"measurement": "effect on levels of cyclin D1", "setting": "cyclin D1", "value": "failed to inhibit"}, {"measurement": "reduction of IL-6 secretion", "setting": "IL-6; 31.25 nM, LPS 1 μg/ml, THP-1 cells", "value": "Approximately 85%"}, {"measurement": "IL-6 (Inhibition), Percentage of Maximal Response Without Cytotoxicity", "setting": "IL-6; LPS-stimulated THP-1 cells, LPS alone 100.00", "value": "83.51 ± 5.41", "unit": "%"}, {"measurement": "effect on IL-6 production/secretion", "setting": "IL-6; as low as 31.25 nM (31.25 and 62.5 nM in FIG. 6), 24 h", "value": "significantly inhibit"}, {"measurement": "Mitotic Index (X ± SD)", "setting": "mouse vaginal epithelium", "value": "16.06±2.66"}, {"measurement": "inhibition on IL-15 (real time PCR)", "setting": "IL-15", "value": "moderate inhibition"}, {"measurement": "inhibition of cyclin dependent kinase 4 and 6 activity", "setting": "cdk4/6", "value": "failed to inhibit"}]}
